Results from PubChem BioAssay AID2060508 (Molecular Pharmacology Branch, DTP, NCI, 2025).

What follows are compounds tested on 454973-116-R2-J3-PDC spheroids, viability, % test/control (assay: Anticancer human tumor 454973-116-R2-J3-PDC patient-derived pancreatic carcinoma cell line growth inhibition [GQUAD]). Conditions: second compound 0.0316 µM; first compound 3.16 µM; stronger effect = lower value; spheroids with HUVEC and MSC.
In short: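 Tumor cells were grown as complex spheroids with HUVEC endothelial cells and mesenchymal stem cells as stroma. G-quadruplex stabilizers were combined with targeted agents over half-log dilutions from near the clinical Cmax, or from 10 microM.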
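Further: spheroids exposed to compounds for seven days; 100% = DMSO vehicle control viability.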

| SMILES | viability, T/C [%] |
| --- | --- |
| COc1ncnc(C2CC2)c1-c1ncc2cnn(Cc3ccc(-c4nc(C(F)(F)F)cn4C(C)C)cc3)c2n1 + Cc1cnc(CNC(=O)c2c(=O)c3ccc(N4CCCN(C)CC4)nc3n3c2sc2ccccc23)cn1 | 88.9 |
| O=c1[nH]cc(F)c(=O)[nH]1 + Cc1cnc(CNC(=O)c2c(=O)c3ccc(N4CCCN(C)CC4)nc3n3c2sc2ccccc23)cn1 | 33.9 |

Same assay, conditions: second compound 0.0316 µM; first compound 10 µM; stronger effect = lower value; spheroids with HUVEC and MSC

| SMILES | viability, T/C [%] |
| --- | --- |
| CCCS(=O)(=O)Nc1ccc(F)c(C(=O)c2c[nH]c3ncc(-c4ccc(Cl)cc4)cc23)c1F + Cc1cnc(CNC(=O)c2c(=O)c3ccc(N4CCCN(C)CC4)nc3n3c2sc2ccccc23)cn1 | 14.1 |
| COc1ncnc(C2CC2)c1-c1ncc2cnn(Cc3ccc(-c4nc(C(F)(F)F)cn4C(C)C)cc3)c2n1 + Cc1cnc(CNC(=O)c2c(=O)c3ccc(N4CCCN(C)CC4)nc3n3c2sc2ccccc23)cn1 | 86.9 |
| O=c1[nH]cc(F)c(=O)[nH]1 + Cc1cnc(CNC(=O)c2c(=O)c3ccc(N4CCCN(C)CC4)nc3n3c2sc2ccccc23)cn1 | 40.7 |

Same assay, conditions: second compound 0.1 µM; first compound 0.0316 µM; stronger effect = lower value; spheroids with HUVEC and MSC

| SMILES | viability, T/C [%] |
| --- | --- |
| CCCS(=O)(=O)Nc1ccc(F)c(C(=O)c2c[nH]c3ncc(-c4ccc(Cl)cc4)cc23)c1F + Cc1cnc(CNC(=O)c2c(=O)c3ccc(N4CCCN(C)CC4)nc3n3c2sc2ccccc23)cn1 | 77.4 |
| COc1ncnc(C2CC2)c1-c1ncc2cnn(Cc3ccc(-c4nc(C(F)(F)F)cn4C(C)C)cc3)c2n1 + Cc1cnc(CNC(=O)c2c(=O)c3ccc(N4CCCN(C)CC4)nc3n3c2sc2ccccc23)cn1 | 82.1 |
| O=c1[nH]cc(F)c(=O)[nH]1 + Cc1cnc(CNC(=O)c2c(=O)c3ccc(N4CCCN(C)CC4)nc3n3c2sc2ccccc23)cn1 | 89.7 |

Same assay, conditions: second compound 0.1 µM; first compound 0.1 µM; stronger effect = lower value; spheroids with HUVEC and MSC

| SMILES | viability, T/C [%] |
| --- | --- |
| CCCS(=O)(=O)Nc1ccc(F)c(C(=O)c2c[nH]c3ncc(-c4ccc(Cl)cc4)cc23)c1F + Cc1cnc(CNC(=O)c2c(=O)c3ccc(N4CCCN(C)CC4)nc3n3c2sc2ccccc23)cn1 | 88 |
| COc1ncnc(C2CC2)c1-c1ncc2cnn(Cc3ccc(-c4nc(C(F)(F)F)cn4C(C)C)cc3)c2n1 + Cc1cnc(CNC(=O)c2c(=O)c3ccc(N4CCCN(C)CC4)nc3n3c2sc2ccccc23)cn1 | 69.4 |
| O=c1[nH]cc(F)c(=O)[nH]1 + Cc1cnc(CNC(=O)c2c(=O)c3ccc(N4CCCN(C)CC4)nc3n3c2sc2ccccc23)cn1 | 90.1 |

Same assay, conditions: second compound 0.1 µM; first compound 0.316 µM; stronger effect = lower value; spheroids with HUVEC and MSC

| SMILES | viability, T/C [%] |
| --- | --- |
| CCCS(=O)(=O)Nc1ccc(F)c(C(=O)c2c[nH]c3ncc(-c4ccc(Cl)cc4)cc23)c1F + Cc1cnc(CNC(=O)c2c(=O)c3ccc(N4CCCN(C)CC4)nc3n3c2sc2ccccc23)cn1 | 99 |
| COc1ncnc(C2CC2)c1-c1ncc2cnn(Cc3ccc(-c4nc(C(F)(F)F)cn4C(C)C)cc3)c2n1 + Cc1cnc(CNC(=O)c2c(=O)c3ccc(N4CCCN(C)CC4)nc3n3c2sc2ccccc23)cn1 | 74.7 |
| O=c1[nH]cc(F)c(=O)[nH]1 + Cc1cnc(CNC(=O)c2c(=O)c3ccc(N4CCCN(C)CC4)nc3n3c2sc2ccccc23)cn1 | 78.6 |

Same assay, conditions: second compound 0.1 µM; first compound 1 µM; stronger effect = lower value; spheroids with HUVEC and MSC

| SMILES | viability, T/C [%] |
| --- | --- |
| CCCS(=O)(=O)Nc1ccc(F)c(C(=O)c2c[nH]c3ncc(-c4ccc(Cl)cc4)cc23)c1F + Cc1cnc(CNC(=O)c2c(=O)c3ccc(N4CCCN(C)CC4)nc3n3c2sc2ccccc23)cn1 | 94.6 |
| COc1ncnc(C2CC2)c1-c1ncc2cnn(Cc3ccc(-c4nc(C(F)(F)F)cn4C(C)C)cc3)c2n1 + Cc1cnc(CNC(=O)c2c(=O)c3ccc(N4CCCN(C)CC4)nc3n3c2sc2ccccc23)cn1 | 71.4 |
| O=c1[nH]cc(F)c(=O)[nH]1 + Cc1cnc(CNC(=O)c2c(=O)c3ccc(N4CCCN(C)CC4)nc3n3c2sc2ccccc23)cn1 | 66.3 |

Same assay, conditions: second compound 0.1 µM; first compound 3.16 µM; stronger effect = lower value; spheroids with HUVEC and MSC

| SMILES | viability, T/C [%] |
| --- | --- |
| CCCS(=O)(=O)Nc1ccc(F)c(C(=O)c2c[nH]c3ncc(-c4ccc(Cl)cc4)cc23)c1F + Cc1cnc(CNC(=O)c2c(=O)c3ccc(N4CCCN(C)CC4)nc3n3c2sc2ccccc23)cn1 | 95.2 |
| COc1ncnc(C2CC2)c1-c1ncc2cnn(Cc3ccc(-c4nc(C(F)(F)F)cn4C(C)C)cc3)c2n1 + Cc1cnc(CNC(=O)c2c(=O)c3ccc(N4CCCN(C)CC4)nc3n3c2sc2ccccc23)cn1 | 69 |
| O=c1[nH]cc(F)c(=O)[nH]1 + Cc1cnc(CNC(=O)c2c(=O)c3ccc(N4CCCN(C)CC4)nc3n3c2sc2ccccc23)cn1 | 37.9 |

Same assay, conditions: second compound 0.1 µM; first compound 10 µM; stronger effect = lower value; spheroids with HUVEC and MSC

| SMILES | viability, T/C [%] |
| --- | --- |
| CCCS(=O)(=O)Nc1ccc(F)c(C(=O)c2c[nH]c3ncc(-c4ccc(Cl)cc4)cc23)c1F + Cc1cnc(CNC(=O)c2c(=O)c3ccc(N4CCCN(C)CC4)nc3n3c2sc2ccccc23)cn1 | 17.3 |
| COc1ncnc(C2CC2)c1-c1ncc2cnn(Cc3ccc(-c4nc(C(F)(F)F)cn4C(C)C)cc3)c2n1 + Cc1cnc(CNC(=O)c2c(=O)c3ccc(N4CCCN(C)CC4)nc3n3c2sc2ccccc23)cn1 | 63.4 |
| O=c1[nH]cc(F)c(=O)[nH]1 + Cc1cnc(CNC(=O)c2c(=O)c3ccc(N4CCCN(C)CC4)nc3n3c2sc2ccccc23)cn1 | 44.8 |

Same assay, conditions: second compound 0.316 µM; first compound 0.0316 µM; stronger effect = lower value; spheroids with HUVEC and MSC

| SMILES | viability, T/C [%] |
| --- | --- |
| CCCS(=O)(=O)Nc1ccc(F)c(C(=O)c2c[nH]c3ncc(-c4ccc(Cl)cc4)cc23)c1F + Cc1cnc(CNC(=O)c2c(=O)c3ccc(N4CCCN(C)CC4)nc3n3c2sc2ccccc23)cn1 | 70.7 |
| COc1ncnc(C2CC2)c1-c1ncc2cnn(Cc3ccc(-c4nc(C(F)(F)F)cn4C(C)C)cc3)c2n1 + Cc1cnc(CNC(=O)c2c(=O)c3ccc(N4CCCN(C)CC4)nc3n3c2sc2ccccc23)cn1 | 65.4 |
| O=c1[nH]cc(F)c(=O)[nH]1 + Cc1cnc(CNC(=O)c2c(=O)c3ccc(N4CCCN(C)CC4)nc3n3c2sc2ccccc23)cn1 | 73.8 |

Same assay, conditions: second compound 0.316 µM; first compound 0.1 µM; stronger effect = lower value; spheroids with HUVEC and MSC

| SMILES | viability, T/C [%] |
| --- | --- |
| CCCS(=O)(=O)Nc1ccc(F)c(C(=O)c2c[nH]c3ncc(-c4ccc(Cl)cc4)cc23)c1F + Cc1cnc(CNC(=O)c2c(=O)c3ccc(N4CCCN(C)CC4)nc3n3c2sc2ccccc23)cn1 | 73.4 |
| COc1ncnc(C2CC2)c1-c1ncc2cnn(Cc3ccc(-c4nc(C(F)(F)F)cn4C(C)C)cc3)c2n1 + Cc1cnc(CNC(=O)c2c(=O)c3ccc(N4CCCN(C)CC4)nc3n3c2sc2ccccc23)cn1 | 61.9 |
| O=c1[nH]cc(F)c(=O)[nH]1 + Cc1cnc(CNC(=O)c2c(=O)c3ccc(N4CCCN(C)CC4)nc3n3c2sc2ccccc23)cn1 | 84.2 |

Same assay, conditions: second compound 0.316 µM; first compound 0.316 µM; stronger effect = lower value; spheroids with HUVEC and MSC

| SMILES | viability, T/C [%] |
| --- | --- |
| CCCS(=O)(=O)Nc1ccc(F)c(C(=O)c2c[nH]c3ncc(-c4ccc(Cl)cc4)cc23)c1F + Cc1cnc(CNC(=O)c2c(=O)c3ccc(N4CCCN(C)CC4)nc3n3c2sc2ccccc23)cn1 | 79.5 |
| COc1ncnc(C2CC2)c1-c1ncc2cnn(Cc3ccc(-c4nc(C(F)(F)F)cn4C(C)C)cc3)c2n1 + Cc1cnc(CNC(=O)c2c(=O)c3ccc(N4CCCN(C)CC4)nc3n3c2sc2ccccc23)cn1 | 59.5 |
| O=c1[nH]cc(F)c(=O)[nH]1 + Cc1cnc(CNC(=O)c2c(=O)c3ccc(N4CCCN(C)CC4)nc3n3c2sc2ccccc23)cn1 | 78.1 |
